system: passive cutaneous anaphylaxis; experiment: passive cutaneous anaphylaxis test (P.C.A.) on rats, oral administration; format: in vivo, rat (SLC Wister); conditions: 0.5 h, rat, 30 mg/kg, antigen 30 minutes after administration, read-out: Percent inhibition (%)
Protocol: Various 5-hydroxy-quinolopyran-4-one-2-carboxylic acid esters in terms of the R group represented by the general formula [I] were prepared. […] In order to estimate the efficacy of each compound as an anti-allergic antasthmatic, the efficacy was evaluated according to a passive cutaneous anaphylaxis test (P.C.A.) on rats.
To SLC Wister rats were administered intracutaneously egg white albumin recrystallized 5 times and Bodetallapertussis Vaccine, and serum was collected after 13 days from the rats. […] A physiological salt solution in which egg white albumin and a dye (Evans' blue) were dissolved was administered intravenously, 30 minutes after the oral administration, to the rats; and 30 minutes thereafter the back skins of the rats were peeled off. The dye that transuded from the peeled skin was extracted with Na2 SO4 and acetone, and the quantities of the dye were measured by colorimetry at 620 m μ.

Compared with Cc1ccc2c(nc(O)c3c(=O)cc(C(=O)OC4CCCCC4)oc32)c1C [1-cyclohexyl ester of 7,8-dimethyl-5-hydroxy-quinolo[4,3-b]pyran-4-one-2-carboxylic acid, reference compound], Cc1ccc2c(nc(O)c3c(=O)cc(C(=O)OC(C)C)oc32)c1C [isopropyl ester of 7,8-dimethyl-5-hydroxy-quinolo[4,3-b]pyran-4-one-2-carboxylic acid, reference compound] is lower in inhibition in vivo at 30 mg/kg: 33.7% for the first, 7.3% for the second.

First: Cc1ccc2c(nc(O)c3c(=O)cc(C(=O)OCC(C)(C)C)oc32)c1C [2,2-dimethyl-1-propyl ester of 7,8-dimethyl-5-hydroxy-quinolo[4,3-b]pyran-4-one-2-carboxylic acid]
Second: Cc1ccc2c(nc(O)c3c(=O)cc(C(=O)OCCC(C)(C)C)oc32)c1C [3,3-dimethyl-1-butyl ester of 7,8-dimethyl-5-hydroxy-quinolo[4,3-b]pyran-4-one-2-carboxylic acid, reference compound]
The inhibition in vivo at 30 mg/kg of the first is higher: 93.2% for the first, 26.5% for the second.

Going from Cc1ccc2nc(O)c3c(=O)cc(C(=O)OCC(C)(C)C)oc3c2c1 [2,2-dimethyl-1-propyl ester of 9-methyl-5-hydroxy-quinolo[4,3-b]pyran-4-one-2-carboxylic acid] to CCC(C)COC(=O)c1cc(=O)c2c(O)nc3ccc(C)cc3c2o1 (stereo not shown) [2-methyl-1-butyl ester of 9-methyl-5-hydroxy-quinolo[4,3-b]pyran-4-one-2-carboxylic acid], the inhibition in vivo at 30 mg/kg rises from 58.4% to 83%.

Compared with CCC(CC)COC(=O)c1cc(=O)c2c(O)nc3c(C)c(C)ccc3c2o1 [2-ethyl-1-butyl ester of 7,8-dimethyl-5-hydroxy-quinolo[4,3-b]pyran-4-one-2-carboxylic acid, reference compound], CCC(C)COC(=O)c1cc(=O)c2c(O)nc3c(C)c(C)ccc3c2o1 (stereo not shown) [2-methyl-1-butyl ester of 7,8-dimethyl-5-hydroxy-quinolo[4,3-b]pyran-4-one-2-carboxylic acid] is higher in inhibition in vivo at 30 mg/kg: 49.1% for the first, 99.8% for the second.

First: CCCCC(C)OC(=O)c1cc(=O)c2c(O)nc3c(C)c(C)ccc3c2o1 (stereo not shown) [2-hexyl ester of 7,8-dimethyl-5-hydroxy-quinolo[4,3-b]pyran-4-one-2-carboxylic acid]
Second: CCCC(C)OC(=O)c1cc(=O)c2c(O)nc3c(C)c(C)ccc3c2o1 (stereo not shown) [2-pentyl ester of 7,8-dimethyl-5-hydroxy-quinolo[4,3-b]pyran-4-one-2-carboxylic acid]
The inhibition in vivo at 30 mg/kg of the first is lower: 94.7% for the first, 95.1% for the second.

First: CCCC(C)COC(=O)c1cc(=O)c2c(O)nc3ccc(C)cc3c2o1 (stereo not shown) [2-methyl-1-pentyl ester of 9-methyl-5-hydroxy-quinolo[4,3-b]pyran-4-one-2-carboxylic acid]
Second: CCCC(C)OC(=O)c1cc(=O)c2c(O)nc3ccc(C)cc3c2o1 (stereo not shown) [2-pentyl ester of 9-methyl-5-hydroxy-quinolo[4,3-b]pyran-4-one-2-carboxylic acid]
The inhibition in vivo at 30 mg/kg of the first is higher: 83.8% for the first, 70% for the second.

Compared with Cc1ccc2c(nc(O)c3c(=O)cc(C(=O)OCC(C)C)oc32)c1C [2-methyl-1-propyl ester of 7,8-dimethyl-5-hydroxy-quinolo[4,3-b]pyran-4-one-2-carboxylic acid, reference compound], Cc1ccc2c(nc(O)c3c(=O)cc(C(=O)OCCC(C)C)oc32)c1C [3-methyl-1-butyl ester of 7,8-dimethyl-5-hydroxy-quinolo[4,3-b]pyran-4-one-2-carboxylic acid] is higher in inhibition in vivo at 30 mg/kg: 2.5% for the first, 95.5% for the second.

First: CCC(OC(=O)c1cc(=O)c2c(O)nc3c(C)c(C)ccc3c2o1)C(C)C (stereo not shown) [2-methyl-3-pentyl ester of 7,8-dimethyl-5-hydroxy-quinolo[4,3-b]pyran-4-one-2-carboxylic acid, reference compound]
Second: CCC(C)C(C)OC(=O)c1cc(=O)c2c(O)nc3c(C)c(C)ccc3c2o1 (stereo not shown) [3-methyl-2-pentyl ester of 7,8-dimethyl-5-hydroxy-quinolo[4,3-b]pyran-4-one-2-carboxylic acid]
The inhibition in vivo at 30 mg/kg of the first is lower: 32.1% for the first, 68.3% for the second.

First: Cc1ccc2c(nc(O)c3c(=O)cc(C(=O)OC(C)C(C)(C)C)oc32)c1C (stereo not shown) [3,3-dimethyl-2-butyl ester of 7,8-dimethyl-5-hydroxy-quinolo[4,3-b]pyran-4-one-2-carboxylic acid, reference compound]
Second: Cc1ccc2c(nc(O)c3c(=O)cc(C(=O)OC(C)C(C)C)oc32)c1C (stereo not shown) [3-methyl-2-butyl ester of 7,8-dimethyl-5-hydroxy-quinolo[4,3-b]pyran-4-one-2-carboxylic acid, reference compound]
The inhibition in vivo at 30 mg/kg of the first is higher: 42.7% for the first, 22.6% for the second.

Going from CCCC(CC)OC(=O)c1cc(=O)c2c(O)nc3c(C)c(C)ccc3c2o1 (stereo not shown) [3-hexyl ester of 7,8-dimethyl-5-hydroxy-quinolo[4,3-b]pyran-4-one-2-carboxylic acid] to CCC(CC)OC(=O)c1cc(=O)c2c(O)nc3c(C)c(C)ccc3c2o1 [3-pentyl ester of 7,8-dimethyl-5-hydroxy-quinolo[4,3-b]pyran-4-one-2-carboxylic acid], the inhibition in vivo at 30 mg/kg falls from 96.1% to 65.3%.

Going from CCCC(CC)OC(=O)c1cc(=O)c2c(O)nc3ccc(C)cc3c2o1 (stereo not shown) [3-hexyl ester of 9-methyl-5-hydroxy-quinolo[4,3-b]pyran-4-one-2-carboxylic acid] to Cc1ccc2nc(O)c3c(=O)cc(C(=O)OCCC(C)C)oc3c2c1 [3-methyl-1-butyl ester of 9-methyl-5-hydroxy-quinolo[4,3-b]pyran-4-one-2-carboxylic acid], the inhibition in vivo at 30 mg/kg rises from 81.8% to 87.2%.

Compared with COc1cc2nc(O)c3c(=O)cc(C(=O)OCCC(C)C)oc3c2cc1OC [3-methyl-1-butyl ester of 8,9-dimethoxy-5-hydroxy-quinolo[4,3-b]pyran-4-one-2-carboxylic acid], CC(C)CCOC(=O)c1cc(=O)c2c(O)nc3ccc(Cl)cc3c2o1 [3-methyl-1-butyl ester of 9-chloro-5-hydroxy-quinolo[4,3-b]pyran-4-one-2-carboxylic acid] is lower in inhibition in vivo at 30 mg/kg: 67.3% for the first, 59.5% for the second.

First: CCOC(=O)c1ccc2nc(O)c3c(=O)cc(C(=O)OCCC(C)C)oc3c2c1 [3-methyl-1-butyl ester of 9-ethoxycarbonyl-5-hydroxy-quinolo[4,3-b]pyran-4-one-2-carboxylic acid]
Second: CCCCc1ccc2nc(O)c3c(=O)cc(C(=O)OCCC(C)C)oc3c2c1 [3-methyl-1-butyl ester of 9-n-butyl-5-hydroxy-quinolo[4,3-b]pyran-4-one-2-carboxylic acid]
The inhibition in vivo at 30 mg/kg of the first is lower: 52.7% for the first, 64.5% for the second.

Compared with CCC(C)CCOC(=O)c1cc(=O)c2c(O)nc3c(C)c(C)ccc3c2o1 (stereo not shown) [3-methyl-1-pentyl ester of 7,8-dimethyl-5-hydroxy-quinolo[4,3-b]pyran-4-one-2-carboxylic acid], Cc1ccc2c(nc(O)c3c(=O)cc(C(=O)OCCCC(C)C)oc32)c1C [4-methyl-1-pentyl ester of 7,8-dimethyl-5-hydroxy-quinolo[4,3-b]pyran-4-one-2-carboxylic acid] is lower in inhibition in vivo at 30 mg/kg: 80.8% for the first, 78.5% for the second.

Compared with Cc1ccc2c(nc(O)c3c(=O)cc(C(=O)OCCCc4ccccc4)oc32)c1C [3-phenyl-1-propyl ester of 7,8-dimethyl-5-hydroxy-quinolo[4,3-b]pyran-4-one-2-carboxylic acid, reference compound], CCCCOC(=O)c1cc(=O)c2c(O)nc3c(C)c(C)ccc3c2o1 [n-butyl ester of 7,8-dimethyl-5-hydroxy-quinolo[4,3-b]pyran-4-one-2-carboxylic acid, reference compound] is higher in inhibition in vivo at 30 mg/kg: -7.2% for the first, 48.8% for the second.

Work on Cc1ccc2c(nc(O)c3c(=O)cc(C(=O)OC(C)CC(C)C)oc32)c1C (stereo not shown) [4-methyl-2-pentyl ester of 7,8-dimethyl-5-hydroxy-quinolo[4,3-b]pyran-4-one-2-carboxylic acid] yielded an inhibition in vivo at 30 mg/kg of 67.6%.

same assay, conditions: 0.5 h, rat, 100 mg/kg, antigen 30 minutes after administration, read-out: Percent inhibition (%)

Compared with Cc1ccc2c(nc(O)c3c(=O)cc(C(=O)OCC(O)CO)oc32)c1C (stereo not shown) [2,3-dihydroxy-propyl ester of 7,8-dimethyl-5-hydroxy-quinolo[4,3-b]pyran-4-one-2-carboxylic acid, reference compound], Cc1ccc2c(nc(O)c3c(=O)cc(C(=O)OCCO)oc32)c1C [2-hydroxy-ethyl ester of 7,8-dimethyl-5-hydroxy-quinolo[4,3-b]pyran-4-one-2-carboxylic acid, reference compound] is higher in inhibition in vivo at 100 mg/kg: 8.6% for the first, 21.4% for the second.

First: Cc1ccc2c(nc(O)c3c(=O)cc(C(=O)O)oc32)c1C [7,8-dimethyl-5-hydroxy-quinolo[4,3-b]pyran-4-one-2-carboxylic acid, reference compound]
Second: COC(=O)c1cc(=O)c2c(O)nc3c(C)c(C)ccc3c2o1 [methyl ester of 7,8-dimethyl-5-hydroxy-quinolo[4,3-b]pyran-4-one-2-carboxylic acid, reference compound]
The inhibition in vivo at 100 mg/kg of the first is lower: 5.5% for the first, 39.4% for the second.

First: Cc1ccc2c(nc(O)c3c(=O)cc(C(=O)OCc4ccccc4)oc32)c1C [benzyl ester of 7,8-dimethyl-5-hydroxy-quinolo[4,3-b]pyran-4-one-2-carboxylic acid, reference compound]
Second: CCOC(=O)c1cc(=O)c2c(O)nc3c(C)c(C)ccc3c2o1 [ethyl ester of 7,8-dimethyl-5-hydroxy-quinolo[4,3-b]pyran-4-one-2-carboxylic acid, reference compound]
The inhibition in vivo at 100 mg/kg of the first is lower: 13.2% for the first, 36.1% for the second.
